Measured values published in PubChem BioAssay (NCI).
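Grown in 96-well plates, cells were treated for 48 hours with each compound at five concentrations. Insufficient inhibition: endpoint recorded as highest concentration tested. Definition used: TGI = concentration required for complete inhibition of growth.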

What was measured:
Test in all cases: DTP human tumour cell line panel, 48 h
786-0 renal = tested on: 786-0 renal
A498 renal = tested on: A498 renal
A549 NSCLC = tested on: A549 NSCLC
ACHN renal = tested on: ACHN renal
CAKI-1 renal = tested on: CAKI-1 renal
CCRF-CEM leukemia = tested on: CCRF-CEM leukemia
COLO 205 colon = tested on: COLO 205 colon
DLD-1 colon = tested on: DLD-1 colon
DMS 114 small cell lung = tested on: DMS 114 small cell lung
DMS 273 small cell lung = tested on: DMS 273 small cell lung
HCC-2998 colon = tested on: HCC-2998 colon
HCT-116 colon = tested on: HCT-116 colon
HCT-15 colon = tested on: HCT-15 colon
HL-60(TB) leukemia = tested on: HL-60(TB) leukemia
HOP-18 NSCLC = tested on: HOP-18 NSCLC
HOP-62 NSCLC = tested on: HOP-62 NSCLC
IGROV1 ovarian = tested on: IGROV1 ovarian
K-562 leukemia = tested on: K-562 leukemia
KM12 colon = tested on: KM12 colon
KM20L2 colon = tested on: KM20L2 colon
LXFL 529 NSCLC = tested on: LXFL 529 NSCLC
M14 melanoma = tested on: M14 melanoma
M19-MEL melanoma = tested on: M19-MEL melanoma
MALME-3M melanoma = tested on: MALME-3M melanoma
MOLT-4 leukemia = tested on: MOLT-4 leukemia
NCI-H226 lung = tested on: NCI-H226 lung
NCI-H460 lung = tested on: NCI-H460 lung
NCI-H522 lung = tested on: NCI-H522 lung
OVCAR-3 ovarian = tested on: OVCAR-3 ovarian
OVCAR-4 ovarian = tested on: OVCAR-4 ovarian
OVCAR-8 ovarian = tested on: OVCAR-8 ovarian
RPMI-8226 leukemia = tested on: RPMI-8226 leukemia
RXF 393 renal = tested on: RXF 393 renal
RXF-631 renal = tested on: RXF-631 renal
SF-268 CNS = tested on: SF-268 CNS
SF-539 CNS = tested on: SF-539 CNS
SK-MEL-2 melanoma = tested on: SK-MEL-2 melanoma
SK-MEL-28 melanoma = tested on: SK-MEL-28 melanoma
SK-MEL-5 melanoma = tested on: SK-MEL-5 melanoma
SK-OV-3 ovarian = tested on: SK-OV-3 ovarian
SN12C renal = tested on: SN12C renal
SNB-19 CNS = tested on: SNB-19 CNS
SNB-75 CNS = tested on: SNB-75 CNS
SNB-78 CNS = tested on: SNB-78 CNS
SR leukemia = tested on: SR leukemia
SW-620 colon = tested on: SW-620 colon
TK-10 renal = tested on: TK-10 renal
U251 CNS = tested on: U251 CNS
UACC-257 melanoma = tested on: UACC-257 melanoma
UACC-62 melanoma = tested on: UACC-62 melanoma
UO-31 renal = tested on: UO-31 renal
EKVX NSCLC = tested on: EKVX NSCLC
HOP-92 NSCLC = tested on: HOP-92 NSCLC
HT29 colon = tested on: HT29 colon
LOX IMVI melanoma = tested on: LOX IMVI melanoma
NCI-H23 lung = tested on: NCI-H23 lung
OVCAR-5 ovarian = tested on: OVCAR-5 ovarian
SF-295 CNS = tested on: SF-295 CNS
XF 498 CNS = tested on: XF 498 CNS

For N#C[C@]12CC3(CC[C@H]1CC1(C2)OCCO1)OCCO3, the TGI (786-0 renal) was over 100 µM, the TGI (A498 renal) was over 100 µM and the TGI (A549 NSCLC) was over 100 µM. For the same compound, the TGI (ACHN renal) was over 100 µM, the TGI (CAKI-1 renal) was over 100 µM and the TGI (CCRF-CEM leukemia) was over 100 µM. The TGI (COLO 205 colon) was over 100 µM, the TGI (DLD-1 colon) was over 100 µM and the TGI (DMS 114 small cell lung) was over 100 µM. For the same compound, the TGI (DMS 273 small cell lung) was over 100 µM, the TGI (HCC-2998 colon) was over 100 µM and the TGI (HCT-116 colon) was over 100 µM. For the same compound, the TGI (HCT-15 colon) was over 100 µM, the TGI (HL-60(TB) leukemia) was over 100 µM and the TGI (HOP-18 NSCLC) was over 100 µM. It also gave a TGI (HOP-62 NSCLC) of over 100 µM, a TGI (IGROV1 ovarian) of over 100 µM and a TGI (K-562 leukemia) of over 100 µM. For the same compound, the TGI (KM12 colon) was over 100 µM, the TGI (KM20L2 colon) was over 100 µM and the TGI (LXFL 529 NSCLC) was over 100 µM. For the same compound, the TGI (M14 melanoma) was over 100 µM, the TGI (M19-MEL melanoma) was over 100 µM and the TGI (MALME-3M melanoma) was over 100 µM. The TGI (MOLT-4 leukemia) was over 100 µM, the TGI (NCI-H226 lung) was over 100 µM and the TGI (NCI-H460 lung) was over 100 µM. The TGI (NCI-H522 lung) was over 100 µM, the TGI (OVCAR-3 ovarian) was over 100 µM and the TGI (OVCAR-4 ovarian) was over 100 µM. For the same compound, the TGI (OVCAR-8 ovarian) was over 100 µM, the TGI (RPMI-8226 leukemia) was over 100 µM and the TGI (RXF 393 renal) was over 100 µM. For the same compound, the TGI (RXF-631 renal) was over 100 µM, the TGI (SF-268 CNS) was over 100 µM and the TGI (SF-539 CNS) was over 100 µM. The TGI (SK-MEL-2 melanoma) was over 100 µM, the TGI (SK-MEL-28 melanoma) was over 100 µM and the TGI (SK-MEL-5 melanoma) was over 100 µM. For the same compound, the TGI (SK-OV-3 ovarian) was over 100 µM, the TGI (SN12C renal) was over 100 µM and the TGI (SNB-19 CNS) was over 100 µM. The TGI (SNB-75 CNS) was over 100 µM, the TGI (SNB-78 CNS) was over 100 µM and the TGI (SR leukemia) was over 100 µM. For the same compound, the TGI (SW-620 colon) was over 100 µM, the TGI (TK-10 renal) was over 100 µM and the TGI (U251 CNS) was over 100 µM. The TGI (UACC-257 melanoma) was over 100 µM, the TGI (UACC-62 melanoma) was over 100 µM and the TGI (UO-31 renal) was over 100 µM.
CN(C)CCN1N=Nc2cccc3cccc1c23 showed a TGI (786-0 renal) of over 100 µM, a TGI (A498 renal) of over 100 µM and a TGI (A549 NSCLC) of over 100 µM. For the same compound, the TGI (ACHN renal) was over 100 µM, the TGI (CAKI-1 renal) was over 100 µM and the TGI (CCRF-CEM leukemia) was over 78.8 µM. The TGI (COLO 205 colon) was over 100 µM, the TGI (DLD-1 colon) was over 100 µM and the TGI (DMS 114 small cell lung) was over 100 µM. It also gave a TGI (DMS 273 small cell lung) of 87.7 µM, a TGI (EKVX NSCLC) of over 100 µM and a TGI (HCC-2998 colon) of over 100 µM. The TGI (HCT-116 colon) was over 100 µM, the TGI (HCT-15 colon) was over 100 µM and the TGI (HL-60(TB) leukemia) was over 70.8 µM. It also gave a TGI (HOP-18 NSCLC) of over 100 µM, a TGI (HOP-62 NSCLC) of over 100 µM and a TGI (HOP-92 NSCLC) of over 100 µM. For the same compound, the TGI (HT29 colon) was over 100 µM, the TGI (IGROV1 ovarian) was over 100 µM and the TGI (K-562 leukemia) was over 100 µM. For the same compound, the TGI (KM12 colon) was over 100 µM, the TGI (KM20L2 colon) was over 100 µM and the TGI (LOX IMVI melanoma) was over 100 µM. It also gave a TGI (LXFL 529 NSCLC) of over 100 µM, a TGI (M14 melanoma) of over 100 µM and a TGI (MALME-3M melanoma) of over 100 µM. It also gave a TGI (MOLT-4 leukemia) of over 87.3 µM, a TGI (NCI-H226 lung) of over 100 µM and a TGI (NCI-H23 lung) of over 100 µM. The TGI (NCI-H460 lung) was over 100 µM, the TGI (NCI-H522 lung) was over 100 µM and the TGI (OVCAR-3 ovarian) was over 100 µM. The TGI (OVCAR-4 ovarian) was over 100 µM, the TGI (OVCAR-5 ovarian) was over 100 µM and the TGI (OVCAR-8 ovarian) was over 100 µM. It also gave a TGI (RPMI-8226 leukemia) of over 64.3 µM, a TGI (RXF-631 renal) of over 100 µM and a TGI (SF-268 CNS) of over 100 µM. It also gave a TGI (SF-295 CNS) of over 100 µM, a TGI (SF-539 CNS) of over 100 µM and a TGI (SK-MEL-2 melanoma) of over 100 µM. For the same compound, the TGI (SK-MEL-28 melanoma) was over 100 µM, the TGI (SK-MEL-5 melanoma) was over 100 µM and the TGI (SK-OV-3 ovarian) was over 100 µM. For the same compound, the TGI (SN12C renal) was over 100 µM, the TGI (SNB-19 CNS) was over 100 µM and the TGI (SNB-75 CNS) was over 100 µM. It also gave a TGI (SR leukemia) of 40.2 µM, a TGI (SW-620 colon) of over 53.6 µM and a TGI (TK-10 renal) of over 100 µM. The TGI (U251 CNS) was over 100 µM, the TGI (UACC-257 melanoma) was over 100 µM and the TGI (UACC-62 melanoma) was over 100 µM. The TGI (UO-31 renal) was over 100 µM and the TGI (XF 498 CNS) was over 100 µM.
Nc1ccc(CCN2CCN(c3cccc(C(F)(F)F)c3)CC2)cc1 was tested, and the TGI (786-0 renal) was over 100 µM, the TGI (A498 renal) was over 100 µM and the TGI (A549 NSCLC) was over 100 µM. For the same compound, the TGI (ACHN renal) was over 100 µM, the TGI (CAKI-1 renal) was over 100 µM and the TGI (CCRF-CEM leukemia) was over 100 µM. It also gave a TGI (COLO 205 colon) of over 100 µM, a TGI (DLD-1 colon) of over 100 µM and a TGI (DMS 114 small cell lung) of over 100 µM. For the same compound, the TGI (EKVX NSCLC) was over 100 µM, the TGI (HCC-2998 colon) was over 100 µM and the TGI (HCT-116 colon) was over 100 µM. It also gave a TGI (HCT-15 colon) of over 100 µM, a TGI (HL-60(TB) leukemia) of 41.8 µM and a TGI (HOP-18 NSCLC) of over 100 µM. The TGI (HOP-62 NSCLC) was over 100 µM, the TGI (HOP-92 NSCLC) was over 100 µM and the TGI (HT29 colon) was over 100 µM. The TGI (IGROV1 ovarian) was over 100 µM, the TGI (K-562 leukemia) was over 100 µM and the TGI (KM12 colon) was over 100 µM. For the same compound, the TGI (KM20L2 colon) was over 100 µM, the TGI (LOX IMVI melanoma) was over 100 µM and the TGI (LXFL 529 NSCLC) was over 100 µM. For the same compound, the TGI (M14 melanoma) was over 100 µM, the TGI (M19-MEL melanoma) was over 100 µM and the TGI (MALME-3M melanoma) was over 100 µM. The TGI (MOLT-4 leukemia) was 89.7 µM, the TGI (NCI-H226 lung) was over 100 µM and the TGI (NCI-H23 lung) was over 100 µM. For the same compound, the TGI (NCI-H460 lung) was over 100 µM, the TGI (NCI-H522 lung) was over 100 µM and the TGI (OVCAR-3 ovarian) was over 100 µM. The TGI (OVCAR-5 ovarian) was over 100 µM, the TGI (OVCAR-8 ovarian) was over 100 µM and the TGI (RPMI-8226 leukemia) was over 100 µM. For the same compound, the TGI (RXF 393 renal) was over 100 µM, the TGI (RXF-631 renal) was over 100 µM and the TGI (SF-268 CNS) was over 100 µM. The TGI (SF-295 CNS) was over 100 µM, the TGI (SF-539 CNS) was over 100 µM and the TGI (SK-MEL-28 melanoma) was over 100 µM. It also gave a TGI (SK-MEL-5 melanoma) of over 100 µM, a TGI (SK-OV-3 ovarian) of over 100 µM and a TGI (SN12C renal) of over 100 µM. The TGI (SNB-19 CNS) was over 100 µM, the TGI (SNB-75 CNS) was over 100 µM and the TGI (SR leukemia) was over 100 µM. For the same compound, the TGI (TK-10 renal) was over 100 µM, the TGI (U251 CNS) was over 100 µM and the TGI (UACC-257 melanoma) was over 100 µM. It also gave a TGI (UACC-62 melanoma) of over 100 µM, a TGI (UO-31 renal) of over 100 µM and a TGI (XF 498 CNS) of over 100 µM.
